≈ marks a conversion by molar mass, not a printed value.
Experiments:
[1] = system: Bacillus subtilis; test: Antibacterial activity against Bacillus subtilis; assay type: functional
[2] = system: Micrococcus luteus; test: Antibacterial activity against Sarcina lutea; assay type: functional

COc1cccc2c1cc1c3c(cc4c(c32)OCO4)C(=O)N1[C@@H]1O[C@H](COC(=O)/C=C/c2ccc(O)cc2)[C@@H](O)[C@H](O)[C@H]1O
MIC [1]: 43.8 µg/mL (≈ 72.8 µM)
MIC [2]: 175 µg/mL (≈ 291 µM)

O=C(N[C@H](CO)[C@H](O)c1ccc([N+](=O)[O-])cc1)C(Cl)Cl [CHLORAMPHENICOL]
MIC [2]: 5 µg/mL (≈ 15.5 µM)
